Measurements as given in the OPERA property sets (Mansouri et al. 2018).
Where a SMILES comes first, the peptide text is derived from it.

Structure (SMILES)	logP
Cc1cnc2ccc3c(nc(N)n3C)c2n1	1.01
CON=C(C(=O)NC1C(=O)N2C(C(C)OC(=O)OC(C)C)=CCSC12)c1csc(N)n1 (centres undefined)	1.37
COCC(O)Cn1c([N+](=O)[O-])nc(Br)c1Br (centres undefined)	1.02
CC(C)CC(NC(=O)C(CC(C)C)NC(=O)CNC(=O)C(N)Cc1c[nH]c2ccccc12)C(=O)O (centres undefined) (H-WGLL-OH; configuration not given here)	0.06
O=[N+]([O-])c1ccc(-n2cccn2)cc1	2.25
CC(C)(C)n1cc(C(=O)O)c(=O)c2cc(F)c(N3CC4CC3CN4)nc21 (centres undefined)	-0.41
O=C(c1ccccc1)c1ccnnc1	1.09
COc1cc2c(Nc3cc(CC(=O)Nc4cccc(F)c4F)[nH]n3)ncnc2cc1OCCCN(CCO)CC(C)C	5.2
CCCCCCNCc1ccc(C)cc1	4.96
CSc1cccc2nc(N)nc(N)c12	1.81
Cc1nc2c3c(c(C(=O)Nc4ccccc4)cn2c1C)CCC(c1ccccc1)O3 (centres undefined)	5.9
CC(C)NC(=NC#N)NS(=O)(=O)c1cnccc1Nc1cccc(F)c1	1.59
CCCC(=NOCC)C1=C(O)CC2(CCCCC2)OC1=O	3.62
Cc1ccccc1N1CCN(CC2CN=C(N)O2)CC1 (centres undefined)	1.78
Clc1ccc(CNc2ncnc3nc[nH]c23)cc1	2.9
Cc1oc2c(C)cc3ccc(=O)oc3c2c1C	3.34
O=c1cc(CI)occ1O	0.67
O=C(Nc1ncc([N+](=O)[O-])s1)c1ccc(Br)cc1	3.58
CC(C)C(NC(=O)C(N)Cc1ccccc1)C(=O)NC(Cc1ccc(O)cc1)C(=O)NC(Cc1ccccc1)C(=O)O (centres undefined) (H-FVYF-OH; configuration not given here)	-0.32
Cc1cc2ccc3occc3c2oc1=O	2.57
OC(CNCCCc1ccccc1)CON=C(C1CC1)C1CC1 (centres undefined)	2.56
c1ccc(N2CCN(CCn3nc4ccccc4n3)CC2)cc1	3.34
CCCOc1ccc(NC(=O)OCCN2CCCCC2)cc1	4.2
CC(C)CC(Nc1ccc([N+](=O)[O-])cc1[N+](=O)[O-])C(=O)O (centres undefined)	3.25
CC1=CC(=C2C(=O)c3ccccc3C2=O)C=C(C)N1CCCNC(=O)N(CCCl)N=O	2.84

Structure (SMILES)	logP
CS(=O)(=O)CC(=O)C=NO	-0.69
CCOC(=O)N1COCc2c1ccc1cc3ccc4c(c3nc21)COCN4C(=O)OCC	2.5
O=[N+]([O-])c1ncn(C2OC(CO)C(O)C2O)n1 (centres undefined)	-1.54
COC(=O)C(C)NP(=O)(OCC1C=CC(n2cc(C)c(=O)[nH]c2=O)O1)Oc1cccc(Br)c1 (centres undefined)	1.64
Cc1ccc(O)cc1N	1.16
Clc1cc(Cl)c2c(oc3cccc(Cl)c32)c1Cl	5.89
CCOC(=O)CC(C(=O)OC)S(=O)(=O)c1ccc([N+](=O)[O-])cc1 (centres undefined)	1.4
Clc1ccc(N2CCN(CCCOn3nnc4ccccc43)CC2)cc1	4.15
Brc1ccc2ccc3c(Br)ccc4ccc1c2c43	6.69
Cc1c(C)c2cc3ccoc3cc2oc1=O	2.77
CCCC(=O)OC1Cc2c(O)cc(O)cc2OC1c1ccc(O)c(O)c1 (centres undefined)	2.47
CCCCCCCCCCNCCO	3.62
CC=C(C)C(=O)OCC1CCCC2(C)CCC(C(C)(C)O)CC12 (centres undefined)	5.27
Clc1ccc(-c2c[nH]cc2N2CCOCC2)cc1	3.2
CCCCCCNC(=O)N1C(=O)N(C)CC1O (centres undefined)	2.39
C=CCNC(=O)N(CCCC(NC(C)=O)C(=O)NCc1ccccc1)Cc1ccccc1 (centres undefined)	1.44
CC(C)(C)c1ccc(OCC2CN=C(N)O2)cc1 (centres undefined)	2.84
CSc1ncc([N+](=O)[O-])n1C	0.94
Nc1nc(N)nc(-c2ccc(SC(F)(F)F)cc2)n1	3.2
COc1ccc(C2Cc3cc(OCc4ccccc4)ccc3N(CCN(C)C)C(=O)C2OC(C)=O)cc1 (centres undefined)	5.4
OCCCCCCCCNc1ncnc2c1ncn2C1OC(CO)C(O)C1O (centres undefined)	1.3
CC(=O)OCOC(=O)N(C)N=Nc1ccc(C#N)cc1	2.08
Cc1cc2c(o1)c(C)cc1c(C)cc(=O)n(C)c12	3.43
COc1ccc(C2Cc3cc(Cl)ccc3N(CCN(C)C)C(=O)C2OC(C)=O)cc1 (centres undefined)	4.2
